# Read-outs that look alike come from different tables or passages of the source.
# Experiments:
# [1] = tested on: leukocyte mobilization (blood cell counts); experiment: Hematology measurements after PO administration (leukocyte mobilization); format: in vivo, CD-1 mice
# Method: At each endpoint, mice were euthanized with CO2 and blood collected via cardiac puncture. An aliquot was set aside at room temperature for hematology measurements with remaining blood processed for plasma for drug concentration determination. Lungs were collected and immediately frozen on dry ice and stored at -70°C until determination of drug concentration.
# [2] = AMD070 PK study via SC injection: plasma, lung and liver concentration; format: in vivo, C57BL/6 mice; conditions: SC 400 μg/mouse; for Kp: C57BL/6, read-out: Tissue AUC/Plasma AUC
# Method: (§1) All preceding procedures were same as those for AMD070 PK studies via IP injections. AMD070 concentrations in mouse plasma were determined using protein precipitation extraction followed by UPLC-MS/MS analysis. Briefly, 100 μL aliquots of plasma were transferred to individual wells of an Isolute PPT+ (Biotage) array plate containing 300 μL of 0.1% formic acid (FA) in acetonitrile (ACN). […] The sample residue was then reconstituted into 200 μL of 0.1/5/95 FA/ACN/H2O (v/v/v) and analyzed using reverse phase chromatography (gradient elution) combined with multiple reaction monitoring acquisition (MRM). The mobile phases consisted of 0.1% FA in H2O and 0.1% FA in ACN. AMD070 was extracted from lung and liver tissue by homogenization under basic conditions followed by liquid-liquid extraction in tert-butyl methyl ether (TBME) and ethyl acetate respectively. In summary, 50 mg of lung or liver tissue pieces were cut, weighed, and transferred to homogenization tubes. 25 μL of deionized water for lung and 10 μL for liver were added to each tube, followed by the addition of zirconium (Zr) homogenization beads. The samples were homogenized for approximately 20 seconds in the BeadBeater, followed by 1 minute of centrifugation at room temperature at 13,520 rcf. 200 μL of 1 N NaOH was then transferred to each tube, followed by a second homogenization/centrifugation cycle as described above. […] The dried residue was reconstituted into 0.1/5/95 TFA/ACN/H2O and analyzed using reverse phase chromatography (gradient elution) combined with MRM acquisition in positive electrospray mode (ES+). The mobile phases consisted of 0.1% TFA in H2O and 0.1% TFA in ACN.
# [3] = tested on: leukocyte mobilization (blood cell counts); experiment: Hematology measurements after IP administration (leukocyte mobilization); format: in vivo, C57BL/6 mice; conditions: IP 400 μg/mouse
# Method: At each endpoint, animals were euthanized with CO2 and blood collected via cardiac puncture. An aliquot was set aside at room temperature for hematology measurements with remaining blood processed for plasma for drug concentration determination. Lungs and livers were also collected and immediately frozen on dry ice and stored at -70°C until determination of drug concentration.
# [4] = AMD070 PK study via PO: plasma and lung concentration; format: in vivo, CD-1 mice
# Method: as §1, with “At each endpoint, mice” for “All preceding procedures”, “euthanized with CO2 and blood collected via cardiac puncture. An aliquot was set aside at room temperature” for “same as those”, “hematology measurements with remaining blood processed for plasma for drug concentration determination. Lungs were collected and immediately frozen on dry ice and stored at -70°C until determination of drug concentration.” for “AMD070 PK studies via IP injections.”
# [5] = tested on: mobilization of bone marrow hematopoietic progenitors; set-up: method as in PMID 17452489; conditions: human subjects; cited from earlier work
structure (smiles),measurement,setting,value
NCCCCN(Cc1nc2ccccc2[nH]1)[C@H]1CCCc2cccnc21 [AMD070],Tmax of WBC increase,[1]; PO 200 μg/mouse,180 min
same,WBC counts,[1]; PO 200 μg/mouse,"significant, transient increase"
same,WBC counts,[1]; PO 400 μg/mouse,increased and remained elevated for the full 24 hours
same,eosinophils (WBC differential),[1]; PO 200 or 400 μg/mouse,no increases
same,lymphocytes (WBC differential),[1]; PO 200 or 400 μg/mouse,increased
same,monocytes (WBC differential),[1]; PO 200 or 400 μg/mouse,no increases
same,neutrophils (WBC differential),[1]; PO 200 or 400 μg/mouse,no increases
same,platelet counts,[1]; PO 200 or 400 μg/mouse,did not change
same,red blood cell (RBC) counts,[1]; PO 200 or 400 μg/mouse,did not change
same,Cmax,"[2]; C57BL/6, 400 ug, Liver",5760 ng/g
same,Tmax,"[2]; C57BL/6, 400 ug, Liver",30 min
same,Cmax,"[2]; C57BL/6, 400 ug, Lung",5650 ng/g
same,Tmax,"[2]; C57BL/6, 400 ug, Lung",60 min
same,Cmax,"[2]; C57BL/6, 400 ug, Plasma",700 ng/mL
same,Tmax,"[2]; C57BL/6, 400 ug, Plasma",30 min
same,AUC,"[2]; C57BL/6, 400 ug, Plasma, read-out: AUC (all time points)",970 ng·h/mL
same,Kp,[2]; Liver,79.7
same,Kp,[2]; Lung,83.3
same,RBC levels,[3],unaffected
same,Tmax of WBC increase,[3],180 min
same,WBC counts,[3],significant but transient increase
same,lymphocytes (WBC differential),[3],increased
same,neutrophils (WBC differential),[3],increased
same,platelet levels,[3],unaffected
same,drug levels in the lungs,[4]; PO 200 μg/animal,detectable but not quantifiable
same,lung Cmax,[4]; PO 400 μg/animal,267 ng/g
same,time of lung Cmax after PO,[4]; PO 400 μg/animal,6 h
same,plasma concentrations of drug,"[4]; PO 200 or 400 μg/animal, data not shown",very low
same,time lung concentration above IC50 and EC90,"[4]; of the 24 hours after dosing, PO 400 μg/animal, WinNonlin analysis",at least 21 hours
same,time of peak mobilization of bone marrow hematopoietic progenitors post dosing,[5],two to three
